Measurements as given in article PMC11428108 (Frontiers in Molecular Neuroscience, 2024).
Several values for one entry are separate records, joined by “and”; a condition that tells them apart may be missing. Equal values may be shown once. Entries after “also recorded” stand apart in the source; their conditions may differ. Read-outs that look alike come from different tables or passages of the source.

Experiments:
male Wistar rats [1] = experiment: Operant responding for food pellets (FR5TO20); format: in vivo; conditions: SR9883 10 mg kg^−1 IP, food-restricted rats; p = 0.9868
Description: Operant chambers (Med Associates, East Fairfield, VT, United States) were used to assess responding by rats for food pellets and intravenous nicotine infusions. […] All rats were food-restricted to maintain their body weight at approximately 85% that of free-feeding weights. They were then trained to press an active lever for 45 mg food pellets on a fixed ratio 5 time-out 20 s (FR5TO20) schedule of reinforcement. […] Rats responded for food rewards until a reliable responding was achieved, defined as >90 pellets earned per 60 min session across three consecutive sessions. […] Rats were anesthetized using 1–3% isoflurane inhalation in oxygen and catheters were implanted into the left jugular vein. […]
Concentration-response curves of SR9883 actions in nAChR-expressing HEK cells and oocytes were fitted to the Hill equation using a nonlinear least squares curve fit method and efficacy and potency values were calculated as previously described ([Wang et al., 2015]). […] For the ICSS threshold experiment, percentages of baseline reward threshold scores were calculated by expressing the absolute threshold scores as a percentage of the scores obtained during baseline. […] Response latency data were analyzed in the same manner as the threshold data. […] Effects of SR9883 on responding for food pellets in rats was analyzed by a two-tailed paired t test. […]

[2] = Plasma pharmacokinetics after IV or PO administration; format: in vivo, male C57BL/6J mice
Description: Mice prepared with intravenous catheters and treated with SR9883 via oral (10 mg kg^−1) or intravenous (1 mg kg^−1) routes of administration. Blood samples were collected up to 240 min after treatment into lithium heparin coated tubes (Ram Scientific) and stored on wet ice. Blood samples were later centrifuged for 3 min at 5,000 RPM to separate plasma from red blood cells. Plasma was collected into a fresh tube and stored at −80°C. A separate group of mice was treated with SR9883 (20 mg kg^−1 PO) and killed by cervical dislocation 120 min later. Their brains were collected and stored at −80°C. SR9883 levels were quantified in plasma and brain by mass spectrometry using an ABSciex 5,500 instrument and using multiple reaction monitoring as previously described ([Radnai et al., 2021]). Brain samples were homogenized in saline and then immediately treated with twice the amount (v:v) of acetonitrile to extract the compound. Plasma samples were directly treated with acetonitrile. Samples were filtered through a 0.2 μm filter plate prior to injection onto the LC–MS/MS as previously described ([Radnai et al., 2021]).

male Wistar rats [3] = experiment: Intravenous nicotine self-administration (FR5TO20); format: in vivo; conditions: for Numbers of nicotine infusions earned vs vehicle: nicotine 0.03 mg kg^−1 per infusion
Description: Operant chambers (Med Associates, East Fairfield, VT, United States) were used to assess responding by rats for food pellets and intravenous nicotine infusions. […] All rats were food-restricted to maintain their body weight at approximately 85% that of free-feeding weights. They were then trained to press an active lever for 45 mg food pellets on a fixed ratio 5 time-out 20 s (FR5TO20) schedule of reinforcement. […] Rats responded for food rewards until a reliable responding was achieved, defined as >90 pellets earned per 60 min session across three consecutive sessions. […] Rats were anesthetized using 1–3% isoflurane inhalation in oxygen and catheters were implanted into the left jugular vein. The catheter was passed subcutaneously to a polyethylene assembly mounted on the animals’ back. […] During the time period, responding on the active lever had no scheduled consequence.
(§1) Concentration-response curves of SR9883 actions in nAChR-expressing HEK cells and oocytes were fitted to the Hill equation using a nonlinear least squares curve fit method and efficacy and potency values were calculated as previously described ([Wang et al., 2015]). Plasma and brain levels of SR9983 after oral administration were compared using a two-tailed paired t test. […] For the ICSS threshold experiment, percentages of baseline reward threshold scores were calculated by expressing the absolute threshold scores as a percentage of the scores obtained during baseline. The baseline values were the mean thresholds on the three sessions prior to drug injections. Response latency data were analyzed in the same manner as the threshold data. […] Effects of SR9883 on responding for food pellets in rats was analyzed by a two-tailed paired t test. […] Significant main or interaction effects in ANOVAs were followed by Bonferroni or Newman–Keuls post-hoc tests as appropriate. All statistical analyses were performed using GraphPad Prism software with α set to 0.05.

[4] = molecular target: T1, human (α3)2(β2)2α5 nAChRs (Homo sapiens, UniProt P17787+P30532+P32297); experiment: FLEXstation membrane potential assay in HEK cells stably expressing (α3)2(β2)2α5 nAChRs; format: cell-based; conditions: SR9883 0.0005–10 μM
T1 construct: expressed in transfected cells
T1 sequence (P32297 32-505): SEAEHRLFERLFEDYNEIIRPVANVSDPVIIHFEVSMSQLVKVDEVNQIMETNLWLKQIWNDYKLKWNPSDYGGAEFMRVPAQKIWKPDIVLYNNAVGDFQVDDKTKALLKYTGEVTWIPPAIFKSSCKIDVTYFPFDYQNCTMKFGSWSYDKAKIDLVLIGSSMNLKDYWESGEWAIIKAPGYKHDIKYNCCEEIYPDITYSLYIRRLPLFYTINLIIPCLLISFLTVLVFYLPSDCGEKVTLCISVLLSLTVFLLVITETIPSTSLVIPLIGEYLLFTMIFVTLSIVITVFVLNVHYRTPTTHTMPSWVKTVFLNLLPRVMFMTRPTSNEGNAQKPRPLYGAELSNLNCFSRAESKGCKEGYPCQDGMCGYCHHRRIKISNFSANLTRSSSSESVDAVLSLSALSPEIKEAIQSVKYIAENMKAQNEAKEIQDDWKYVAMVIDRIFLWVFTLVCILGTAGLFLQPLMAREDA
T1 sequence (P17787 26-502): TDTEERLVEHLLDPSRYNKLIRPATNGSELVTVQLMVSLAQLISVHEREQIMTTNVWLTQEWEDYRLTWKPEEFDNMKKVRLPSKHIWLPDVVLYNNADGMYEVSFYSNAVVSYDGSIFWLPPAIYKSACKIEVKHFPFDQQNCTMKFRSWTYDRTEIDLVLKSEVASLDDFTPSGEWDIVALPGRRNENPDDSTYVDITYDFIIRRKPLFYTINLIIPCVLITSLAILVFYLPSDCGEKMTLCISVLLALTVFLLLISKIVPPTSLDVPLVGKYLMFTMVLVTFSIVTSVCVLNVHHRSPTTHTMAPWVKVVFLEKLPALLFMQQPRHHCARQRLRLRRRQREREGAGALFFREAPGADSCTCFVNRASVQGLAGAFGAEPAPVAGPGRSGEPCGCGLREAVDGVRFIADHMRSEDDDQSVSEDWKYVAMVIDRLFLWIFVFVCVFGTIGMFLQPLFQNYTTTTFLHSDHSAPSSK
T1 sequence (P30532 23-468): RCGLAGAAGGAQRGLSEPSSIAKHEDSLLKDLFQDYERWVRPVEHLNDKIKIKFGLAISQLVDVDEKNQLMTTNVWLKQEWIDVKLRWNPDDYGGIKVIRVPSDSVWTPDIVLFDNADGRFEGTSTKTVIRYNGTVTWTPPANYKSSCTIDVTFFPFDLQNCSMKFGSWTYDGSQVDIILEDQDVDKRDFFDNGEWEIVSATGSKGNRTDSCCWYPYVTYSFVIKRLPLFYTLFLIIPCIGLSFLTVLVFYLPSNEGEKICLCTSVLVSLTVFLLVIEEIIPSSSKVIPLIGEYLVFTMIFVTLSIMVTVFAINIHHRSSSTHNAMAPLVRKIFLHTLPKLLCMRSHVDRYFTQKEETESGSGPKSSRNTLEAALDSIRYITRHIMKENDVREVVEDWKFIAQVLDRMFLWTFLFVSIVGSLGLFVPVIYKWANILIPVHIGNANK
Description: (§2) Human embryonic kidney (HEK) cell lines stably expressing human (α4)2(β2)2β2/α4 (α4β2*) nAChRs, (α4)2(β2)2α5 nAChRs, (α4)2(β2)2β3 nAChRs, (α3)2(β4)2α3/β4 (α3β4*) nAChRs, (α3)2(β2)2α3/β2 (α3β2*) nAChRs, (α3)2(β4)2α5 nAChRs, or (α3)2(β2)2α5 nAChRs were maintained as described previously ([Wang et al., 2015]; [Kuryatov et al., 2005]; [Caligiuri et al., 2022]). The FLEXstation bench top scanning fluorometer from Molecular Devices was used to assay nAChR function in these cells, according to published protocols ([Wang et al., 2015]; [Kuryatov et al., 2005]). The membrane potential kit (Molecular Devices) was used according to the manufacturer’s protocols. Serial dilutions of SR9883 were manually added to the assay plate 15 min prior to recording. […] Potency and efficacy were calculated using the Hill equation as described previously ([Wang et al., 2015]).
(§3) Concentration-response curves of SR9883 actions in nAChR-expressing HEK cells and oocytes were fitted to the Hill equation using a nonlinear least squares curve fit method and efficacy and potency values were calculated as previously described ([Wang et al., 2015]). […] For the ICSS threshold experiment, percentages of baseline reward threshold scores were calculated by expressing the absolute threshold scores as a percentage of the scores obtained during baseline. […] Response latency data were analyzed in the same manner as the threshold data. […]

[5] = molecular target: T2, human (α3)2(β4)2α5 nAChRs (Homo sapiens, UniProt P30532+P30926+P32297); experiment: FLEXstation membrane potential assay in HEK cells stably expressing (α3)2(β4)2α5 nAChRs; format: cell-based; conditions: SR9883 0.0005–10 μM
T2 construct: expressed in transfected cells
T2 sequence (P32297 32-505): as the sequence (P32297 32-505) above
T2 sequence (P30926 22-498): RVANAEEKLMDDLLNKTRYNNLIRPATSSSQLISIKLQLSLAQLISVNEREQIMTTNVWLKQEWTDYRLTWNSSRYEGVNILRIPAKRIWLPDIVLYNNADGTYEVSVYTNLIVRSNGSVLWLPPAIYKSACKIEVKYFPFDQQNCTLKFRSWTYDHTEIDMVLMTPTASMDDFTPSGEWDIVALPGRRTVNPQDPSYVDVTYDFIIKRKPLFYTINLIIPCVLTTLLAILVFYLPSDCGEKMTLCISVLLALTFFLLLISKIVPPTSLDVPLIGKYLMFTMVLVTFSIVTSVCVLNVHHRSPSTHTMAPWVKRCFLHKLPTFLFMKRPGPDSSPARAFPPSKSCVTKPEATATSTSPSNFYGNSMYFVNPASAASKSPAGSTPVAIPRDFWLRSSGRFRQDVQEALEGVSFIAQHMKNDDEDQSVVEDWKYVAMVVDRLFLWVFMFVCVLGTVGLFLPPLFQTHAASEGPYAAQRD
T2 sequence (P30532 23-468): as the sequence (P30532 23-468) above
Description: as §2, §3

[6] = molecular target: human (α4)2(β2)2β2/α4 (α4β2*) nAChRs (Homo sapiens, UniProt P17787+P43681); experiment: FLEXstation membrane potential assay in HEK cells stably expressing α4β2* nAChRs; format: cell-based; set-up: expressed in transfected cells
human (α4)2(β2)2β2/α4 (α4β2*) nAChRs, sequence (P43681 27-627): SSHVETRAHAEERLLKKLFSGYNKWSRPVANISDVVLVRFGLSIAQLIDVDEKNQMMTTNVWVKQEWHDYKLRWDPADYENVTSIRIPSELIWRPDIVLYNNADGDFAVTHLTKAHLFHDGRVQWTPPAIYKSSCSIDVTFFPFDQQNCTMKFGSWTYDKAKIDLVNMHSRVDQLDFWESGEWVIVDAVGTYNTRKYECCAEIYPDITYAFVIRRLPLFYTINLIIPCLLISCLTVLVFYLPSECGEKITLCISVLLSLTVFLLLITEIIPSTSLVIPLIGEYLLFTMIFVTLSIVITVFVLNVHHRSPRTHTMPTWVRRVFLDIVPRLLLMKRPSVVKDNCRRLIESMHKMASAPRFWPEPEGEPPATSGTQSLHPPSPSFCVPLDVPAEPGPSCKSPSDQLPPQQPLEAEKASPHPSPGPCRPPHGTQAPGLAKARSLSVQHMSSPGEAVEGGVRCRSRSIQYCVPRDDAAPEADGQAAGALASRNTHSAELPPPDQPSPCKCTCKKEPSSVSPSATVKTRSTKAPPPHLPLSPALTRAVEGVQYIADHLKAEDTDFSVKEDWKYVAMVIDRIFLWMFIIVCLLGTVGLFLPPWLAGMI
human (α4)2(β2)2β2/α4 (α4β2*) nAChRs, sequence (P17787 26-502): as the sequence (P17787 26-502) above
Description: Human embryonic kidney (HEK) cell lines stably expressing human (α4)2(β2)2β2/α4 (α4β2*) nAChRs, (α4)2(β2)2α5 nAChRs, (α4)2(β2)2β3 nAChRs, (α3)2(β4)2α3/β4 (α3β4*) nAChRs, (α3)2(β2)2α3/β2 (α3β2*) nAChRs, (α3)2(β4)2α5 nAChRs, or (α3)2(β2)2α5 nAChRs were maintained as described previously ([Wang et al., 2015]; [Kuryatov et al., 2005]; [Caligiuri et al., 2022]). The FLEXstation bench top scanning fluorometer from Molecular Devices was used to assay nAChR function in these cells, according to published protocols ([Wang et al., 2015]; [Kuryatov et al., 2005]). The membrane potential kit (Molecular Devices) was used according to the manufacturer’s protocols. Serial dilutions of SR9883 were manually added to the assay plate 15 min prior to recording. […] Compound dilutions were prepared in V-shaped 96-well plates (Fisher Scientific Co.) and added to cell culture wells at a rate of 20 μL s^−1 during recording. Cells were incubated at 29°C for 6–20 h prior to assays to upregulate nAChRs ([Wang et al., 2015]; [Kuryatov et al., 2005]). Data points were averaged from 3 to 4 responses from separate wells. Potency and efficacy were calculated using the Hill equation as described previously ([Wang et al., 2015]).
as §1

[7] = male, C57BL/6J, mouse, IV 1 mg kg^−1, plasma, n = 3
[8] = male, C57BL/6J, mouse, PO 10 mg kg^−1, plasma, n = 3

Vss_obs ([2]; IV 1 mg kg^−1, n = 3): 2.72 ± 0.89 L/kg | Cl_obs ([2]; PO 10 mg kg^−1, n = 3): 24.59 ± 2.42 mL/min/kg | half-life ([2]; male, C57BL/6J, mouse, plasma, iv, 1 mg/kg, IV 1 mg kg^−1, as stated in text, read-out: plasma half-life (T½)): ~53 min | Cmax ([2]; male, C57BL/6J, mouse, plasma, iv, 1 mg/kg, IV 1 mg kg^−1, plasma, n = 3): ~775 ng/mL and ~3 µM | half-life ([2]; male, C57BL/6J, mouse, plasma, iv, 1 mg/kg, IV 1 mg kg^−1, plasma, n = 3, mean (S.E.M.), read-out: T1/2 (converted)): 52.8 ± 21.1 min | half-life ([2]; male, C57BL/6J, mouse, plasma, other: intravenous and oral, after IV and oral administration, read-out: half-life): 50 to 60 min | half-life ([2]; male, C57BL/6J, mouse, plasma, po, 10 mg/kg, PO 10 mg kg^−1, as stated in text, read-out: T½): ~64 min | Cmax ([2]; male, C57BL/6J, mouse, plasma, po, 10 mg/kg, PO 10 mg kg^−1, plasma, n = 3): 1020 ± 60.6 ng/mL | half-life ([2]; male, C57BL/6J, mouse, plasma, po, 10 mg/kg, PO 10 mg kg^−1, plasma, n = 3, mean (S.E.M.), read-out: T1/2 (converted)): 224 ± 36.6 min | clearance ([2]; male, C57BL/6J, mouse, plasma, IV 1 mg kg^−1, n = 3, read-out: Cl_obs): 45.7 ± 12.8 mL/min/kg | AUC(0-t) [2, 7]: 1.77 ± 0.62 µM·h | Tmax [2, 7]: 4.8 min | AUC(0-t) [2, 8]: 21.1 ± 0.54 µM·h | Tmax [2, 8]: 64.8 ± 30.6 min | EC50 (enhancement of response to EC20-30 nicotine) [4]: no effect; also recorded: No enhancement | EC50 (enhancement of response to EC20-30 nicotine) [5]: no effect; also recorded: No enhancement | Effect on maximum response to nicotine ([6]; SR9883 10 μM, nicotine 0.001–50 μM): no effect | EC50 ([6]; SR9883 0.0005–10 μM on response to EC20-30 nicotine, HEK cells, ±SEM): 381 ± 91.6 nM | nHill ([6]; SR9883 0.0005–10 μM on response to EC20-30 nicotine, ±SEM): 1.1015 ± 0.2269 | Efficacy ([6]; response to EC20-30 nicotine with SR9883 relative to nicotine alone, ±SEM): 108.92 ± 7.65%
Compound: N#Cc1cccc(-n2nnc(-c3cccnc3)n2)c1 [SR9883, 3-(5-(pyridin-3-yl)-2H-tetrazol-2-yl)benzonitrile]
Food responding (food pellets earned) (male Wistar rats [1]): had no effect | Numbers of nicotine infusions earned vs vehicle (male Wistar rats [3]; SR9883 5 mg kg^−1 IP, p = 0.0021): decreased | Numbers of nicotine infusions earned vs vehicle (male Wistar rats [3]; SR9883 10 mg kg^−1 IP, p < 0.0001): decreased | Responding on the inactive lever (male Wistar rats [3]; SR9883 5 and 10 mg kg^−1 IP, p = 0.1274, not significant): tended to be decreased | Residual deficits in nicotine responding across daily sessions after treatment (male Wistar rats [3]; baseline sessions prior to each SR9883 treatment): no residual deficits
